{"source": "ChEMBL document CHEMBL1201862", "about": "“PubChem BioAssay data set” (2004)", "key": {"[1]": {"experiment": "Concentration-dependent survival of SW480 colon cancer line, luminescence detection with CellTiter-Glo, half-maximal inhibitory concentration (AID 1117338)", "assay_type": "functional"}, "[2]": {"experiment": "cytotoxicity toward Colo320 cells – cell-based, CellTiter-Glo luminescence, IC50, dose response (AID 1117334)", "assay_type": "functional", "settings": "COLO 320"}, "[3]": {"experiment": "CellTiter-Glo luminescent dose response of DLD-1 viability loss (AID 1117352)", "assay_type": "functional"}, "[4]": {"experiment": "SNU-C1 cell viability reduction, dose response, CellTiter-Glo luminescence (AID 1117323)", "assay_type": "functional, cell-based"}, "[5]": {"experiment": "RKO cell viability reduction, dose response, CellTiter-Glo luminescence (AID 1117322)", "assay_type": "functional"}, "[6]": {"experiment": "cytotoxicity toward HCT116 cells – cell-based, CellTiter-Glo luminescence, IC50, dose response (AID 1117332)", "assay_type": "functional", "settings": "HCT-116"}, "[7]": {"experiment": "cytotoxicity toward HT-29 cells – cell-based, CellTiter-Glo luminescence, IC50, dose response (AID 1117330)", "assay_type": "functional"}, "Caspase-3": {"target": "T1, Caspase-3 (Homo sapiens, UniProt P42574)", "T1 sequence (P42574 whole entry)": "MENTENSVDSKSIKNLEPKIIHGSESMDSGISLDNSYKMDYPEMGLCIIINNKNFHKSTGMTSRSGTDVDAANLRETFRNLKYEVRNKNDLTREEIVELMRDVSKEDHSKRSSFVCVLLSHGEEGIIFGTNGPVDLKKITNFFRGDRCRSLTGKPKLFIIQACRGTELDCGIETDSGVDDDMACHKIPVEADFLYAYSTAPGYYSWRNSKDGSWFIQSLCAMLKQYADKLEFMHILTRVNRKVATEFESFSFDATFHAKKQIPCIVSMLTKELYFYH", "assay_type": "functional"}, "[8]": {"target": "T2, Oxysterols receptor LXR-beta (Homo sapiens, UniProt P55055)", "T2 sequence (P55055 whole entry)": "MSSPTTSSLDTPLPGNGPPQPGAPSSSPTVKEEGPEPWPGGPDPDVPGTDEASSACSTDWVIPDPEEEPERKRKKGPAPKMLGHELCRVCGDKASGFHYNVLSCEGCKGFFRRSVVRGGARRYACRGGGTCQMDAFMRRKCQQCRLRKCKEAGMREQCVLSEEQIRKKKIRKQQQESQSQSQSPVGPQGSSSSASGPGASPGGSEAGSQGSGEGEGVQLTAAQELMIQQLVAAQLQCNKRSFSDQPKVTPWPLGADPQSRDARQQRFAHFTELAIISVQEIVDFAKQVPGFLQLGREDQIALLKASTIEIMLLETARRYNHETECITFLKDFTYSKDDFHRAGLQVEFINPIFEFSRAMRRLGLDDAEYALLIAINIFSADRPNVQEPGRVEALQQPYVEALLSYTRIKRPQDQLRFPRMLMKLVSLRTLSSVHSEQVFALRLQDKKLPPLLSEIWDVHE", "assay_type": "functional, cell-based"}, "[9]": {"target": "T3, Sentrin-specific protease 6 (Homo sapiens, UniProt Q9GZR1)", "T3 sequence (Q9GZR1 whole entry)": "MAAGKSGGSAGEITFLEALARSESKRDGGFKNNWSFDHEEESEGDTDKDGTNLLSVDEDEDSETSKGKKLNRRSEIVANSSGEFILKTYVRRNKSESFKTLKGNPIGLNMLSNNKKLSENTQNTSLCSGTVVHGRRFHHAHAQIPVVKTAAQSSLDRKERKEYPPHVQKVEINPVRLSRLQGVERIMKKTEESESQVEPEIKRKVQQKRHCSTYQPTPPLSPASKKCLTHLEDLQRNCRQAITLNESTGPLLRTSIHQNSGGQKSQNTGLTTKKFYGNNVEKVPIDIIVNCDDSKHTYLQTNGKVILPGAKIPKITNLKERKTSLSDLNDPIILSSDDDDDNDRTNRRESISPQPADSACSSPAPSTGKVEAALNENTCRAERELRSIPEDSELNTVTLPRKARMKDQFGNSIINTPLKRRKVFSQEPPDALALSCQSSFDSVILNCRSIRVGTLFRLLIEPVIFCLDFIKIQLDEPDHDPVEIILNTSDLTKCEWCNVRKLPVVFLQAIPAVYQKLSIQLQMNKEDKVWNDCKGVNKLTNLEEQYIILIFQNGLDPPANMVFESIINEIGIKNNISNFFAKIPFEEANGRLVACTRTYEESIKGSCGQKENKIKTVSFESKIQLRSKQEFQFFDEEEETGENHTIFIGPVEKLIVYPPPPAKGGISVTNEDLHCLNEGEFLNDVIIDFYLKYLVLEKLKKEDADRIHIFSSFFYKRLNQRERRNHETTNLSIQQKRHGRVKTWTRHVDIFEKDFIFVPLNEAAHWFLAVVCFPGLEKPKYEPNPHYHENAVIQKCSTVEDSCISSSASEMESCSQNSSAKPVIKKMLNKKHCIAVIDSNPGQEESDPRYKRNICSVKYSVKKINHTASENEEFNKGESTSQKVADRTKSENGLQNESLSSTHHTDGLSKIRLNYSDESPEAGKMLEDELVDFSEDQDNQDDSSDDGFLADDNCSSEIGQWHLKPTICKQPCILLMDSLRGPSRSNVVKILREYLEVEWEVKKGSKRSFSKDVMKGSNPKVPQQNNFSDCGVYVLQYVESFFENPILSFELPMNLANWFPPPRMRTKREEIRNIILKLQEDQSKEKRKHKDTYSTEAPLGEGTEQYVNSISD", "assay_type": "functional"}, "Protein skinhead-1": {"target": "T4, Protein skinhead-1 (Caenorhabditis elegans, UniProt P34707)", "T4 sequence (P34707 whole entry)": "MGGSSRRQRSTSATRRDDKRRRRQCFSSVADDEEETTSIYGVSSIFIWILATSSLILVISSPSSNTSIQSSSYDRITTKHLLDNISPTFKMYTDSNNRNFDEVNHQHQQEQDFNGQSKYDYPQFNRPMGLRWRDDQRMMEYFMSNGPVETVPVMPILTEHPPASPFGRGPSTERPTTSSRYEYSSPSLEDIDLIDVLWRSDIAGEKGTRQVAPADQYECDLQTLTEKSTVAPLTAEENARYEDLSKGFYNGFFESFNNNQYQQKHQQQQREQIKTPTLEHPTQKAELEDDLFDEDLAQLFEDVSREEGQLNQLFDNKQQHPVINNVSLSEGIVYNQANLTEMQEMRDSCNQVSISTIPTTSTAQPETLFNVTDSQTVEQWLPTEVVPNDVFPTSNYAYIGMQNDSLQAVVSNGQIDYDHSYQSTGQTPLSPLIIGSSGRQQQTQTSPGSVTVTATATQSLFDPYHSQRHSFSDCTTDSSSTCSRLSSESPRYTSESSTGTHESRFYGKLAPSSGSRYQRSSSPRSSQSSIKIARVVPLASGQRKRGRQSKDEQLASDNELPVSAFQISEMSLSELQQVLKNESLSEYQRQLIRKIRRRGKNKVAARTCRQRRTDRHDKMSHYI", "assay_type": "functional"}, "[10]": {"target": "T5, Sentrin-specific protease 7 (Homo sapiens, UniProt Q9BQF6)", "T5 sequence (Q9BQF6 whole entry)": "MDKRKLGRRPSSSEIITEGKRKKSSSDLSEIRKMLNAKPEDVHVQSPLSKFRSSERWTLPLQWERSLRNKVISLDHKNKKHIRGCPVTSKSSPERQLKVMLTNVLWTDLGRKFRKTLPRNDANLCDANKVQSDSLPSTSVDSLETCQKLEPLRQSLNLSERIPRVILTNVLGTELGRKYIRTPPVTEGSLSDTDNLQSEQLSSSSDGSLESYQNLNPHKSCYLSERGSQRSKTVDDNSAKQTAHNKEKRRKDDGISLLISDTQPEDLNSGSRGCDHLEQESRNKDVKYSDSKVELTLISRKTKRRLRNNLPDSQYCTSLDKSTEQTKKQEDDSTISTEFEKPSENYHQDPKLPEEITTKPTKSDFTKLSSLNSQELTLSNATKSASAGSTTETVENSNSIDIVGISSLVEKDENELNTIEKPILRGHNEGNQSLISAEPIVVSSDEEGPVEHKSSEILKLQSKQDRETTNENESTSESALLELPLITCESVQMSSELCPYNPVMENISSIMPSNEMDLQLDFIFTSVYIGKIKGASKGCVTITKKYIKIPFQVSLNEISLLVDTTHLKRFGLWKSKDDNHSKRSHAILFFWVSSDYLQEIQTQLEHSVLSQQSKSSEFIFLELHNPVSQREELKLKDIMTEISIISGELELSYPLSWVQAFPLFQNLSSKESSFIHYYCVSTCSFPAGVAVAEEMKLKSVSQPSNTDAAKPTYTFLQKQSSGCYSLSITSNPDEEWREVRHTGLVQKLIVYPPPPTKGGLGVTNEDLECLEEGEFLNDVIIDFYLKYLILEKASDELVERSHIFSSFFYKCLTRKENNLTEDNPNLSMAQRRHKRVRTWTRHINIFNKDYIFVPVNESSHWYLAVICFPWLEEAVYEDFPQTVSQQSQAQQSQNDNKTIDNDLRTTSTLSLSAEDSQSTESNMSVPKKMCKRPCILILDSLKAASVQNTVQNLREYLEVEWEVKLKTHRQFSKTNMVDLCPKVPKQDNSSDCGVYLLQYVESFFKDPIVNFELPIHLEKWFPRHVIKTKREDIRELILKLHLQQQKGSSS", "assay_type": "functional"}, "[11]": {"target": "T6, Sentrin-specific protease 8 (Homo sapiens, UniProt Q96LD8)", "T6 sequence (Q96LD8 whole entry)": "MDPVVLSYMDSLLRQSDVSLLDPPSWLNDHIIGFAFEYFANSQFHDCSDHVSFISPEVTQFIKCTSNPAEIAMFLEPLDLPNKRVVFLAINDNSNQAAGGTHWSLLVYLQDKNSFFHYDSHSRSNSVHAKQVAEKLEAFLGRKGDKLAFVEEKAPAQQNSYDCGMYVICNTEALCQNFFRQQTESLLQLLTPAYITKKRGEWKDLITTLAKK", "assay_type": "functional"}, "Kallikrein-7": {"target": "Kallikrein-7 (Homo sapiens, UniProt P49862)", "sequence (P49862 whole entry)": "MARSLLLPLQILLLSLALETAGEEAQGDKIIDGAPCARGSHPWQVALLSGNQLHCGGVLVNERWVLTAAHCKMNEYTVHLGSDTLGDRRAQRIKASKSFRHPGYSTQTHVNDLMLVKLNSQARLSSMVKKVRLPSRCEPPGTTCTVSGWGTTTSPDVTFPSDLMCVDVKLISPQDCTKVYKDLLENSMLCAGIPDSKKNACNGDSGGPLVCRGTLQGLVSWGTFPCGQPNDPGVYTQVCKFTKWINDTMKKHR", "experiment": "Fluorescence Intensity-based biochemical primary high throughput dose response assay to identify activators of kallikrein-7 (K7) zymogen."}, "[12]": {"target": "T7, Ubiquitin carboxyl-terminal hydrolase BAP1 (Homo sapiens, UniProt Q92560)", "T7 sequence (Q92560 whole entry)": "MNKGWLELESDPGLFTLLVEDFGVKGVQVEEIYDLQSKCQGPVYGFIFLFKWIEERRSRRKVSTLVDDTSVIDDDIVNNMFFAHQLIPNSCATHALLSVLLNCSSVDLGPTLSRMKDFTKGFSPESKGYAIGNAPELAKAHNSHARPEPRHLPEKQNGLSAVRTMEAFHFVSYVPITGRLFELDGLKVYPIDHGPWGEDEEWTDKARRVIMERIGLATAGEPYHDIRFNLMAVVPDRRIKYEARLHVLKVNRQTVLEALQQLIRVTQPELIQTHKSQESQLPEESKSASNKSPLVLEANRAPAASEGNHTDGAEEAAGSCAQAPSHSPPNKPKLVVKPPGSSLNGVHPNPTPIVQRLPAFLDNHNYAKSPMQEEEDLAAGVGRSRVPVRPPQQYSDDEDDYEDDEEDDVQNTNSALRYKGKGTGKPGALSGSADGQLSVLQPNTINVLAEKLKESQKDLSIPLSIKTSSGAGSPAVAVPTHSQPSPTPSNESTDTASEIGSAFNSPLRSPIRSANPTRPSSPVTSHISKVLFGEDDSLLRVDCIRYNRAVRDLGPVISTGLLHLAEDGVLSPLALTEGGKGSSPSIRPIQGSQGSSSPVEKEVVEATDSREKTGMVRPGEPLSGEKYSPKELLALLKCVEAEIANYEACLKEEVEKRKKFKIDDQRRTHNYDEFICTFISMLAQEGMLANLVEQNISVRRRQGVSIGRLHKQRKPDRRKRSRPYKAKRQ", "experiment": "BAP1 deubiquitinase inhibitors, dose response, biochemical (AID 714)", "assay_type": "functional"}}, "note": "Active and inactive are the calls of the source."}
{"smiles": "CNS(=O)(=O)Cc1ccc2[nH]cc(CCN(C)C)c2c1", "values": [{"measurement": "IC50", "setting": "[1]", "result": "> 6.67 µM (inactive)"}, {"measurement": "IC50", "setting": "[2]", "result": "> 20 µM (inactive)"}, {"measurement": "IC50", "setting": "[3]", "result": "> 20 µM (inactive)"}, {"measurement": "IC50", "setting": "[4]", "result": "> 20 µM (inactive)"}, {"measurement": "IC50", "setting": "[5]", "result": "> 20 µM (inactive)"}, {"measurement": "IC50", "setting": "[6]", "result": "> 20 µM (inactive)"}, {"measurement": "IC50", "setting": "[7]", "result": "> 20 µM (inactive)"}]}
{"smiles": "Cc1ccccc1-c1nc(-c2ccc(Br)o2)no1", "values": [{"measurement": "IC50", "setting": "Caspase-3", "result": "17 µM (active)"}, {"measurement": "EC50", "setting": "[8]", "result": "> 67.6 µM (inactive)"}, {"measurement": "IC50", "setting": "[9]", "result": "23.5 µM (active)"}, {"measurement": "IC50", "setting": "Protein skinhead-1", "result": "39.7 µM (active)"}, {"measurement": "IC50", "setting": "[10]", "result": "4.23 µM (active)"}, {"measurement": "EC50", "setting": "cells", "result": "> 67.6 µM (inactive)"}, {"measurement": "IC50", "setting": "[11]", "result": "35.8 µM (active)"}]}
{"smiles": "CC1=NN(C(N)=S)C(=O)C1N=Nc1ccc(C)cc1C", "note": "(centres undefined)", "values": [{"measurement": "EC50", "setting": "[8]", "result": "> 67.5 µM (inactive)"}, {"measurement": "EC50", "setting": "cells", "result": "> 67.5 µM (inactive)"}]}
{"smiles": "CCOC(=O)CC(=O)CSc1nc(C)cc(-c2cccnc2)c1C#N", "values": [{"measurement": "EC50", "setting": "Kallikrein-7", "result": "8.07 µM (active)"}]}
{"smiles": "Cc1cc(C)n2cc(CSCc3ccccc3)nc2n1", "values": [{"measurement": "EC50", "setting": "Kallikrein-7", "result": "49.5 µM (inactive)"}]}
{"smiles": "CCCCNC(=O)c1cnc2ccc(S(=O)(=O)Nc3ccc(OCC)cc3)cc2c1O", "values": [{"measurement": "IC50", "setting": "[12]", "result": "> 50 µM (not active)"}]}
